Literature values in US11185594B2, “(Anti-HER2 antibody)-drug conjugate” (DAIICHI SANKYO COMPANY, LIMITED, priority 2014, dated 2021).

What was measured:
topoisomerase I = molecular target: T1, topoisomerase I (Homo sapiens, UniProt P11387); settings: compared with SN-38 and topotecan
T1 sequence (P11387 1-765): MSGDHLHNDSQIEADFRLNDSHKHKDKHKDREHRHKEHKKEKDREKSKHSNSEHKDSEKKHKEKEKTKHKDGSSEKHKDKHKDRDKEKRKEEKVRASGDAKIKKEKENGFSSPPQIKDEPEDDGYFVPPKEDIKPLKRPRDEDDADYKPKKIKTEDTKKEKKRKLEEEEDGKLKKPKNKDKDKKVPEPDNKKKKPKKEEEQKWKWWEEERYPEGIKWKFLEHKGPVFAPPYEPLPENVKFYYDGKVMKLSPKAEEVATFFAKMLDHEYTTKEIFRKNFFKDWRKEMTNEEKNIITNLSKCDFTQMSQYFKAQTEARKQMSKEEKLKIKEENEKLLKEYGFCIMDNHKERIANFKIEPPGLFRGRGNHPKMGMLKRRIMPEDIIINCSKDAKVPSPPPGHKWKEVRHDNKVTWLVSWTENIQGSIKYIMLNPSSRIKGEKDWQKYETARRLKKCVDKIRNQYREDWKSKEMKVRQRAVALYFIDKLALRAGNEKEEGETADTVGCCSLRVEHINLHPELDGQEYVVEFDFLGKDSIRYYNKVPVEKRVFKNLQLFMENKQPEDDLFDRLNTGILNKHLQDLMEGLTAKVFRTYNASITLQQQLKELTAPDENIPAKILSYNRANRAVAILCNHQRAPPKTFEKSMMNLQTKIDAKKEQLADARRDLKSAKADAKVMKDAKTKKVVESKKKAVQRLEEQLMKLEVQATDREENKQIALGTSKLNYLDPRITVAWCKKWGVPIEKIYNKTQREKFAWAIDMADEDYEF

human tumor = human tumor subcutaneously transplanted mouse model

In the case of `CC[C@@]1(O)C(=O)OCc2c1cc1n(c2=O)Cc2c-1nc1cc(F)c(C)c3c1c2[C@@H](N)CC3` [exatecan, (1S,9S)-1-amino-9-ethyl-5-fluoro-2,3-dihydro-9-hydroxy-4-methyl-1H,12H-benzo[de]pyrano[3′,4′:6,7]indolizino[1,2-b]quinoline-10,13(9H,15H)-dione], the “inhibitory activity on topoisomerase I” value (topoisomerase I) is listed as “higher than SN-38”, the “in vitro cytocidal activity” value (various cancer cells; against various cancer cells) is listed as “higher in vitro cytocidal activity was confirmed” and the “effect against resistant cancer cells” value (various cancer cells; cancer cells resistant to SN-38 or the like due to expression of P-glycoprotein) is listed as “confirmed to have the effect”. For the same compound, the antitumor effect (human tumor) was “potent antitumor effect”.
